Assay results published in patent US12427152B2, “HDAC inhibitors for use with NK cell based therapies” (Viracta Therapeutics, Inc., priority 2016, dated 2025).

Assays:
MDA-MB-231 cells = experiment: Cell surface phenotype of MDA-MB-231 cells by flow cytometry; format: cell-based; conditions: 657 nM, 2.5 h/day, 4 days
Protocol: (§1) After treatment with DMSO (vehicle) or VRx-3996, PC3 or […] cells were analyzed for their cell surface phenotype. Cells were exposed to CHR-3996 daily (657 nM, 2.5 h/day) or DMSO control for 4 consecutive days; on day 5, cells were examined by flow cytometry for cell-surface expression of proteins associated with immune recognition, stimulation, and inhibition. Overall VRx-3996 led to several changes in both cell lines.

HDAC [1] = experiment: Immunoblot for acetyl-lysine 9 on Histone H3 (HDAC activity) in MDA-MB-231 cells; format: cell-based; conditions: 657 nM, 2.5 h
Protocol: (§2) VRx-3996 was tested for its ability to inhibit HDAC activity in PC3 (prostate) and MDA-MB-231 (triple negative breast cancer) carcinoma cells. Cells were exposed to for 2.5 h to VRx-3996 (657 nM), or DMSO prior to being examined for the presence of acetyl-lysine 9 on Histone H3 by immunoblot.

HDAC [2] = experiment: Immunoblot for acetyl-lysine 9 on Histone H3 (HDAC activity) in PC3 cells; format: cell-based; conditions: 657 nM, 2.5 h
Protocol: as §2

PC3 cells [3] = experiment: NK cell lysis assay (In-111 release) with PC3 cells as target; format: cell-based; conditions: 657 nM, 2.5 h/day, 4 days, targets on day 5, primary NK cells and HaNK
Protocol: Tumor cell lines PC3 and MDA-MB-231, treated with VRx-3996, were tested for their ability to be killed by different primary NK cells and the NK cell line HaNK (NK cells with a high-affinity Fc receptor which has a mutation at 158V of human FcγRIIIa). PC3 and MDA-MB-231 cells were exposed to DMSO or CHR-3996 daily (657 nM, 2.5 h/day) for 4 consecutive days, prior to being used as targets on day 5 for direct NK killing in an overnight standard In-111 release lysis assay. Primary NK cells from human PBMCs of 2 healthy donors (isolated by negative selection), and NKs rested for 24 h at 37 C° and 5% CO2, or pre-exposed to ALT803 (25 ng/ml) for 24 h, were used. HaNK cells were used 24 h post 10 Gy radiation exposure. NK cells were plated and varying effector to target ratios (E:T) against PC3 cells (FIG. 3) and MDA-MB-231 cells (FIG. 4).

PC3 cells [4] = experiment: Cell surface phenotype of PC3 cells by flow cytometry; format: cell-based; conditions: 657 nM, 2.5 h/day, 4 days
Protocol: as §1

[5] = test system: PBMCs from patients with metastatic breast cancer; experiment: Flow cytometry of immune cell subsets in PBMCs of patients with metastatic breast cancer; format: cell-based, human; conditions: 657 nM, 2.5 h/day, 2 days
Protocol: Peripheral blood mononuclear cells (PBMCs) from 7 patients with metastatic breast cancer were exposed to VRx-3996 daily (657 nM, 2.5 h/day) or DMSO control for 2 consecutive days and then examined by flow cytometry for different immune cell subsets analyzed: 9 standard immune cell subsets, 114 subsets relating to maturation/function.

[6] = PBMCs of patients with metastatic cancer

`O=C(NO)c1cnc(N2CC3C(C2)C3NCc2ccc3cc(F)ccc3n2)nc1` (centres unmarked) [VRx-3996, 2-(6-{[(6-Fluoroquinolin-2-yl)methyl]amino}-3-azabicyclo[3.1.0]hex-3-yl)-N-hydroxypyrimidine-5-carboxamide] was tested, and the “CD122 % Pos” value (MDA-MB-231 cells; flow cytometry day 5) was 81.9%, the “CD122 GeoMFI” value (MDA-MB-231 cells; flow cytometry day 5) was 735 and the “CD155 % Pos” value (MDA-MB-231 cells; flow cytometry day 5) was 96.1%. For the same molecule, the “CD155 GeoMFI” value (MDA-MB-231 cells; flow cytometry day 5) was 2937, the “EGFR % Pos” value (MDA-MB-231 cells; flow cytometry day 5) was 81.9% and the “EGFR GeoMFI” value (MDA-MB-231 cells; flow cytometry day 5) was 735. For the same molecule, the “Fas % Pos” value (MDA-MB-231 cells; flow cytometry day 5) was 27.3%, the “Fas GeoMFI” value (MDA-MB-231 cells; flow cytometry day 5) was 190 and the “HLA-A, B, C % Pos” value (MDA-MB-231 cells; flow cytometry day 5) was 96.2%. For the same molecule, the “HLA-A, B, C GeoMFI” value (MDA-MB-231 cells; flow cytometry day 5) was 2470, the “ICAM-1 % Pos” value (MDA-MB-231 cells; flow cytometry day 5) was 96.2% and the “ICAM-1 GeoMFI” value (MDA-MB-231 cells; flow cytometry day 5) was 8554. The “MIC-A/B % Pos” value (MDA-MB-231 cells; flow cytometry day 5) was 94.6%, the “MIC-A/B GeoMFI” value (MDA-MB-231 cells; flow cytometry day 5) was 2880 and the “PD-L1 % Pos” value (MDA-MB-231 cells; flow cytometry day 5) was 80%. The “PD-L1 GeoMFI” value (MDA-MB-231 cells; flow cytometry day 5) was 303, the “TRAIL-R1(DR4) % Pos” value (MDA-MB-231 cells; flow cytometry day 5) was 27.1% and the “TRAIL-R1(DR4) GeoMFI” value (MDA-MB-231 cells; flow cytometry day 5) was 107. For the same molecule, the “ULBP-2/5/6 % Pos” value (MDA-MB-231 cells; flow cytometry day 5) was 75.9%, the “ULBP-2/5/6 GeoMFI” value (MDA-MB-231 cells; flow cytometry day 5) was 365 and the “% change CD122 % Pos” value (MDA-MB-231 cells; vs DMSO) was −10%. The “% change CD122 GeoMFI” value (MDA-MB-231 cells; vs DMSO) was 119%, the “% change CD155 % Pos” value (MDA-MB-231 cells; vs DMSO) was less than 5% and the “% change CD155 GeoMFI” value (MDA-MB-231 cells; vs DMSO) was 197%. For the same molecule, the “% change EGFR % Pos” value (MDA-MB-231 cells; vs DMSO) was −10%, the “% change EGFR GeoMFI” value (MDA-MB-231 cells; vs DMSO) was 119% and the “% change Fas % Pos” value (MDA-MB-231 cells; vs DMSO) was −23%. For the same molecule, the “% change Fas GeoMFI” value (MDA-MB-231 cells; vs DMSO) was 184%, the “% change HLA-A, B, C % Pos” value (MDA-MB-231 cells; vs DMSO) was less than 5% and the “% change HLA-A, B, C GeoMFI” value (MDA-MB-231 cells; vs DMSO) was 142%. The “% change ICAM-1 % Pos” value (MDA-MB-231 cells; vs DMSO) was less than 5%, the “% change ICAM-1 GeoMFI” value (MDA-MB-231 cells; vs DMSO) was 546% and the “% change MIC-A/B % Pos” value (MDA-MB-231 cells; vs DMSO) was 6%. The “% change MIC-A/B GeoMFI” value (MDA-MB-231 cells; vs DMSO) was 411%, the “% change PD-L1 % Pos” value (MDA-MB-231 cells; vs DMSO) was less than 5% and the “% change PD-L1 GeoMFI” value (MDA-MB-231 cells; vs DMSO) was 175%. For the same molecule, the “% change TRAIL-R1(DR4) % Pos” value (MDA-MB-231 cells; vs DMSO) was 293%, the “% change TRAIL-R1(DR4) GeoMFI” value (MDA-MB-231 cells; vs DMSO) was 1290% and the “% change ULBP-2/5/6 % Pos” value (MDA-MB-231 cells; vs DMSO) was 6.5%. For the same molecule, the “% change ULBP-2/5/6 GeoMFI” value (MDA-MB-231 cells; vs DMSO) was 244%, the “Histone H3 deacetylation (acetyl-lysine 9 on Histone H3)” value (HDAC [1]) was “inhibits Histone H3 deacetylation” and the “Histone H3 deacetylation (acetyl-lysine 9 on Histone H3)” value (HDAC [2]) was “inhibits Histone H3 deacetylation”. The “Sensitization of PC3 cells to NK lysis” value (PC3 cells [3]) was “Sensitizes PC3 Cells to NK Lysis”, the “CD155 % Pos” value (PC3 cells [4]; flow cytometry day 5) was 95.9% and the “CD155 GeoMFI” value (PC3 cells [4]; flow cytometry day 5) was 742. The “EGFR % Pos” value (PC3 cells [4]; flow cytometry day 5) was 75.6%, the “EGFR GeoMFI” value (PC3 cells [4]; flow cytometry day 5) was 291 and the “Fas % Pos” value (PC3 cells [4]; flow cytometry day 5) was 35.3%. For the same molecule, the “Fas GeoMFI” value (PC3 cells [4]; flow cytometry day 5) was 79, the “HLA-A, B, C % Pos” value (PC3 cells [4]; flow cytometry day 5) was 94.4% and the “HLA-A, B, C GeoMFI” value (PC3 cells [4]; flow cytometry day 5) was 1198. For the same molecule, the “ICAM-1 % Pos” value (PC3 cells [4]; flow cytometry day 5) was 66.8%, the “ICAM-1 GeoMFI” value (PC3 cells [4]; flow cytometry day 5) was 129 and the “MIC-A/B % Pos” value (PC3 cells [4]; flow cytometry day 5) was 48%. For the same molecule, the “MIC-A/B GeoMFI” value (PC3 cells [4]; flow cytometry day 5) was 124, the “PD-L1 % Pos” value (PC3 cells [4]; flow cytometry day 5) was 28% and the “PD-L1 GeoMFI” value (PC3 cells [4]; flow cytometry day 5) was 43. For the same molecule, the “ULBP-3 % Pos” value (PC3 cells [4]; flow cytometry day 5) was 7.6%, the “ULBP-3 GeoMFI” value (PC3 cells [4]; flow cytometry day 5) was 31 and the “% change CD155 % Pos” value (PC3 cells [4]; vs DMSO) was less than 5%. The “% change CD155 GeoMFI” value (PC3 cells [4]; vs DMSO) was 50%, the “% change EGFR % Pos” value (PC3 cells [4]; vs DMSO) was −15% and the “% change EGFR GeoMFI” value (PC3 cells [4]; vs DMSO) was −33%. The “% change Fas % Pos” value (PC3 cells [4]; vs DMSO) was −32%, the “% change Fas GeoMFI” value (PC3 cells [4]; vs DMSO) was −7% and the “% change HLA-A, B, C % Pos” value (PC3 cells [4]; vs DMSO) was less than 5%. The “% change HLA-A, B, C GeoMFI” value (PC3 cells [4]; vs DMSO) was 77%, the “% change ICAM-1 % Pos” value (PC3 cells [4]; vs DMSO) was less than 5% and the “% change ICAM-1 GeoMFI” value (PC3 cells [4]; vs DMSO) was 32%. For the same molecule, the “% change MIC-A/B % Pos” value (PC3 cells [4]; vs DMSO) was −20%, the “% change MIC-A/B GeoMFI” value (PC3 cells [4]; vs DMSO) was 7% and the “% change PD-L1 % Pos” value (PC3 cells [4]; vs DMSO) was −39%. The “% change PD-L1 GeoMFI” value (PC3 cells [4]; vs DMSO) was −27%, the “% change ULBP-3 % Pos” value (PC3 cells [4]; vs DMSO) was −88% and the “% change ULBP-3 GeoMFI” value (PC3 cells [4]; vs DMSO) was −75%. The “FoxP3+ regulatory T cells in PBMCs” value [5, 6] was “Reduces”, the “FoxP3 in T regulatory subsets (FACS, FIGS. 5A and 5B)” value [5, 6] was “reduced” and the “B cell median frequency” value ([5]; PBMCs, 7 patients) was 6.37 % of PBMC. For the same molecule, the “B cells PDL1+ median frequency” value ([5]; PBMCs, 7 patients) was 0.55 % of PBMC, the “CD4 CM PD1+ median frequency” value ([5]; PBMCs, 7 patients) was 3.24 % of PBMC and the CD4 median frequency ([5]; PBMCs, 7 patients) was 42.36 % of PBMC. For the same molecule, the “CD8 Tim3+ median frequency” value ([5]; PBMCs, 7 patients) was 0.06 % of PBMC, the CD8 median frequency ([5]; PBMCs, 7 patients) was 17.67 % of PBMC and the “CD8 naive median frequency” value ([5]; PBMCs, 7 patients) was 4.99 % of PBMC. For the same molecule, the “CD49d neg Treg median frequency” value ([5]; PBMCs, 7 patients) was 5.66 % of CD4, the “ICOS+ CD4 median frequency” value ([5]; PBMCs, 7 patients) was 1.26 % of PBMC and the “ICOS+ PD-1+ CD4 median frequency” value ([5]; PBMCs, 7 patients) was 0.5 % of PBMC. For the same molecule, the “ICOS+ Treg median frequency” value ([5]; PBMCs, 7 patients) was 2.31 % of CD4, the “MDSC CD16+ median frequency” value ([5]; PBMCs, 7 patients) was 2.19 % of PBMC and the MDSC median frequency ([5]; PBMCs, 7 patients) was 5.32 % of PBMC. For the same molecule, the NK median frequency ([5]; PBMCs, 7 patients) was 3.46 % of PBMC, the “NKT PD1+ median frequency” value ([5]; PBMCs, 7 patients) was 0.75 % of PBMC and the NKT median frequency ([5]; PBMCs, 7 patients) was 4.24 % of PBMC. The “PD-1+ Treg median frequency” value ([5]; PBMCs, 7 patients) was 2.31 % of CD4, the “Total Treg median frequency” value ([5]; PBMCs, 7 patients) was 9.39 % of CD4 and the “Treg CD49d neg median frequency” value ([5]; PBMCs, 7 patients) was 0.27 % of PBMC. The “Treg ICOS+ median frequency” value ([5]; PBMCs, 7 patients) was 0.14 % of PBMC, the Treg median frequency ([5]; PBMCs, 7 patients) was 0.47 % of PBMC and the cDC median frequency ([5]; PBMCs, 7 patients) was 0.11 % of PBMC. The “dnMDSC PDL1+ median frequency” value ([5]; PBMCs, 7 patients) was 0.07 % of PBMC, the dnMDSC median frequency ([5]; PBMCs, 7 patients) was 0.36 % of PBMC and the “mMDSC CD16+ median frequency” value ([5]; PBMCs, 7 patients) was 2.08 % of PBMC. For the same molecule, the mMDSC median frequency ([5]; PBMCs, 7 patients) was 4.15 % of PBMC and the pDC median frequency ([5]; PBMCs, 7 patients) was <0.01 % of PBMC.
